Laboratory results as given in patent publication US8278441B2, “BACE inhibitors” (Eli Lilly and Company, priority 2009, dated 2012).
Where a name gives a salt, the structure may show the parent alone. Read-outs that look alike come from different tables or passages of the source.

Assays:
[1] = target: T1, human BACE1(1-460):Fc (Homo sapiens, UniProt P56817); test: BACE1 FRET assay; format: biochemical; details: purified recombinant human BACE1(1-460):Fc, FRET substrate, pH 4.6
T1 construct: made in house; host or cells: HEK293 cells, transient transfection; purified from conditioned media by Protein A chromatography

[2] = target: T2, native endogenous human BACE1 in HEK293/APP751sw cells (Homo sapiens, UniProt P56817); test: HEK293Swe whole cell assay (Abeta ELISA); format: cell-based
T2 construct: endogenous in cells; host or cells: HEK293p (ATCC CRL-1573) stably expressing APP751sw

[3] = target: T3, native, endogenous murine BACE1 in PDAPP primary cortical neurons (Mus musculus, UniProt P56818); test: PDAPP primary neuronal assay (Abeta ELISA); format: cell-based; details: primary cortical neurons from PDAPP embryos, 24 h
T3 construct: endogenous in cells; host or cells: primary cortical neurons from Embryonic Day 16 PDAPP transgenic mouse embryos

[4] = test system: beta-secretase; test: In vivo inhibition of beta-secretase in PDAPP mice; details: 3 hours; for Abeta 1-x peptide level reduction in brain cortex / C99 level reduction in brain cortex / sAPPb level reduction in brain cortex: young female PDAPP mice, vs vehicle-treated mice
Source text: Several animal models, including mouse, guinea pig, dog, and monkey, may be used to screen for inhibition of beta-secretase activity in vivo following compound treatment. Animals used in this invention can be wild type, transgenic, or gene knockout animals. For example, the PDAPP mouse model, prepared as described in Games et al., Nature 373, 523-527 (1995), and other non-transgenic or gene knockout animals are useful to analyze in vivo inhibition of Abeta and sAPPbeta production in the presence of inhibitory compounds. Generally, 2 to 12 month old PDAPP mice, gene knockout mice or non-transgenic animals are administered compound formulated in vehicles, such as corn oil, cyclodextran, phosphate buffers, PHARMASOLVE®, or other suitable vehicles. One to twenty-four hours following the administration of compound, animals are sacrificed, and brains as well as cerebrospinal fluid and plasma are removed for analysis of Abetas, C99, and sAPP fragments. (See Dovey, et al., Journal of Neurochemistry, 76, 173-181 (2001); and Johnson-Wood, et al., Proc. Natl. Acad. Sci. USA, 94, 1550-1555 (1997)).
For standard in vivo pharmacology studies, animals are dosed with various concentrations of compound and compared to a vehicle-treated control group dosed at the same time. For some time course studies, brain tissue, plasma, or cerebrospinal fluid is obtained from selected animals, beginning at time 0 to establish a baseline. Compound is administered to other groups and sacrificed at various times after dosing. Brain tissue, plasma, or cerebrospinal fluid is obtained from selected animals and analyzed for the presence of APP cleavage products, including Abeta peptides, sAPPbeta, and other APP fragments, for example, by specific sandwich ELISA assays. At the end of the test period, animals are sacrificed and brain tissues, plasma, or cerebrospinal fluid are analyzed for the presence of Abeta peptides, C99, and sAPPbeta, as appropriate. Brain tissues of APP transgenic animals are also analyzed for the amount of beta-amyloid plaques following compound treatment.

[5] = Abeta 1-40 in conditioned media, read-out: HEK 293 Swe A-beta (1-40) ELISA IC50
[6] = Abeta 1-42 in conditioned media, read-out: HEK 293 Swe A-beta (1-42) ELISA IC50
[7] = Abeta 1-40, read-out: PDAPP Neuron A-beta (1-40) ELISA IC50
[8] = Abeta 1-42, read-out: PDAPP Neuron A-beta (1-42) ELISA IC50

T1 sequence (P56817 22-460): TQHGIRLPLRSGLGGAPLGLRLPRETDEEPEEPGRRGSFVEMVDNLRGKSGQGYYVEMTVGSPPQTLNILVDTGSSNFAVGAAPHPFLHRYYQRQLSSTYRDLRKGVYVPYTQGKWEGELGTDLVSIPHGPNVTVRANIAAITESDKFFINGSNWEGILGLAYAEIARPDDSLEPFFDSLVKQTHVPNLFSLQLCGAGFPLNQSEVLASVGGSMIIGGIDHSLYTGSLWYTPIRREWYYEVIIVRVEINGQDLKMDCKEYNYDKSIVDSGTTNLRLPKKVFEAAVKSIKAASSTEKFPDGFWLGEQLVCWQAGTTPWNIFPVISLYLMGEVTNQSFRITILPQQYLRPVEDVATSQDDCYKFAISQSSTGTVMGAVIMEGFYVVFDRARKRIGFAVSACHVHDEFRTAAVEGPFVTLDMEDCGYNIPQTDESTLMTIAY
T3 sequence (P56818 46-501): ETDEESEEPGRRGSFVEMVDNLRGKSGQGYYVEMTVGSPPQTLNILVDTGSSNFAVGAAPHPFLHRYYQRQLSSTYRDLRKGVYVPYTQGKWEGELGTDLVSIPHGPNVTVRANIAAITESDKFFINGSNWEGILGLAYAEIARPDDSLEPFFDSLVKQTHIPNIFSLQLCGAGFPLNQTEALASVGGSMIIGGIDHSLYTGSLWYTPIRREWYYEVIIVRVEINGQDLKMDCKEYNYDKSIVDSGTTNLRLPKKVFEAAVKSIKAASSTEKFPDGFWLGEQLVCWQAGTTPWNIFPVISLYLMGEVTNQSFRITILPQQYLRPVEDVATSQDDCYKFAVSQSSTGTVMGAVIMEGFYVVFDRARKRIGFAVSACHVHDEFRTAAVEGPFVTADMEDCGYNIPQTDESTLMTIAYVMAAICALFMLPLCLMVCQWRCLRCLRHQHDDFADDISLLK
T2 sequence (P56817 46-501): as the sequence (P56818 46-501) above, with S6P, I162V, I165L, T180S, A182V, V340I, A393L, H443Q counted along it

IC50 [1]	IC50 [2, 5]	IC50 [2, 6]	IC50 [3, 7]	IC50 [3, 8]	SMILES	CSF Abeta 1-42 level reduction ([4]; CSF, 10 mg/kg oral)	CSF Abeta 1-x level reduction ([4]; CSF, 10 mg/kg oral)	CSF sAPPalpha levels ([4]; CSF, 10 mg/kg oral)	CSF sAPPbeta level reduction ([4]; CSF, 10 mg/kg oral)	Abeta 1-x peptide level reduction in brain cortex ([4]; 10 mg/kg oral)	C99 level reduction in brain cortex ([4]; 10 mg/kg oral)	sAPPb level reduction in brain cortex ([4]; 10 mg/kg oral)	Abeta 1-x peptide level reduction in brain cortex ([4]; 10 mg/kg subcutaneous)	C99 level reduction in brain cortex ([4]; 10 mg/kg subcutaneous)	sAPPb level reduction in brain cortex ([4]; 10 mg/kg subcutaneous)
0.179 µM	0.078 µM	0.0896 µM	0.0328 µM	0.0413 µM	NC1=N[C@@]2(c3cc(NC(=O)c4nccs4)ccc3F)CCOC[C@H]2CS1 [Example 8, N-(3-((8aS)-2-Amino-4,4a,5,7,8,8a-hexahydropyrano[4,3-d][1,3]thiazin-8a-yl)-4-fluorophenyl)thiazole-2-carboxamide hydrochloride]	–	–	–	–	–	–	–	–	–	–
–	–	–	–	–	Cl.NC1=N[C@@]2(c3cc(NC(=O)c4ccc(F)cn4)ccc3F)COC[C@H]2CS1 [Example 1, N-(3-((4aS,7aS)-2-Amino-4a,5,7,7a-tetrahydro-4H-furo[3,4-d][1,3]thiazin-7a-yl)-4-fluorophenyl)-5-fluoropicolinamide hydrochloride]	approximately 62%	approximately 62%	unchanged	22%	approximately 54%	~34%	~42%	approximately 64%	~60%	~44%
0.731 µM	1.36 µM	1.15 µM	0.734 µM	0.659 µM	NC1=N[C@@]2(c3cccc(-c4cncnc4)c3)CCCC[C@H]2CS1 [Example 25, (8aS)-8a-(3-(Pyrimidin-5-yl)phenyl)-4a,5,6,7,8,8a-hexahydro-4H-benzo[d][1,3]thiazin-2-amine dihydrochloride]	–	–	–	–	–	–	–	–	–	–
0.346 µM	0.67 µM	0.173 µM	0.436 µM	0.352 µM	NC1=N[C@@]2(c3cccc(-c4cncnc4)c3)C[C@H](O)C[C@H]2CS1 (racemic) [Example 32, Racemic (4aRS,6RS,7aSR)-2-Amino-7a-(3-(pyrimidin-5-yl)phenyl)-4,4a,5,6,7,7a-hexahydrocyclopenta[d][1,3]thiazin-6-ol dihydrochloride]	–	–	–	–	–	–	–	–	–	–
